Measured values published in PMC11280343, “Rubus urticifolius Compounds with Antioxidant Activity, and Inhibition Potential against Tyrosinase, Melanin, Hyaluronidase, Elastase, and Collagenase” (Pharmaceuticals, 2024).
Like-named read-outs stand apart in the source and are kept apart here.

Columns and labels:
[1] = NR viability assay, HEK001; format: cell-based, Homo sapiens; conditions: human
Experimental: (§1) The HEK001 (Homo sapiens cutaneous keratinocyte, CCL-2404), WS1 (Homo sapiens cutaneous fibroblast, CRL-1502), HMCB (Homo sapiens cutaneous melanoma, CRL-9607), and THP-1 (Homo sapiens peripheral blood monocyte, TIB-202) cell lines used in this study were obtained from the American Type Culture Collection (ATCC, Manassas, VA, USA). Cultivated in a Roswell Park Memorial Institute (RPMI) 1640 medium (RPMI 1640 Merck, Cat. No. R7755, New York, NY, USA) supplemented with 2 mM L-glutamine (≥99% Merck, Cat. No. 56-85-9), 10% fetal bovine serum (FBS Merck, Cat. No. TMS-016, St. Louis, MO, USA), and 10,000 units of penicillin and 10 mg streptomycin/mL (Merck, Cat. No. P4333, St. Louis, MO, USA) in culture flasks, the cells were maintained in an incubator under normoxic conditions (20–21% O2) and a humidified atmosphere (5% CO2 at 37 °C).
(§2) Mother solutions of samples (extracts, fractions, and compounds) were prepared at a concentration of […] using dimethyl sulfoxide (DMSO ≥ 99.9% Merck, Cat. No. 67-68-5, St. Louis, MO, USA) as the solvent. From these mother solutions, dilutions were prepared at concentrations ranging from 100 to 0.20 μg/mL or μM in culture medium containing 0.5% DMSO. Additionally, a negative control group consisting solely of culture medium with 0.5% DMSO was included to assess its potential cytotoxic effect on the cells.
(§3) Cell viability was evaluated using a colorimetric assay in 96-well plates, employing 3-amino-7-dimethylamino-2-methylphenazine hydrochloride salt reagent (NR, Merck, Cat. No. 553-24-2, St. Louis, MO, USA).
(§4) HEK001, WS1, HMCB, and THP-1 cell lines were cultured in 96-well plates at 37 °C with 5% CO2 until > 90% confluency was achieved (1 × 10^6 cells/well). Subsequently, the cultures were treated with sample dilutions (100–0.20 μg/mL or μM) for 72 h at 37 °C with 5% CO2 in phenol red-free RPMI. The supernatant was then discarded and the cells were washed with phosphate-buffered saline (PBS) before being incubated with […] NR (50 μg/mL; 173 μM) for 3 h at 37 °C with 5% CO2. NR labelling was performed after DMSO treatment. After incubation, the labelled sample dilutions were rapidly washed with a fixative solution composed of 1% calcium chloride (CaCl2 Merck, Cat. No. 10043-52-4, St. Louis, MO, USA) and 0.5% formaldehyde solution (≥36.0% in H2O Merck, Cat. No. 50-00-0, St. Louis, MO, USA), then diluted with 100 μL of the NR extraction solution. Finally, the plates were read at 540 nm using a microplate reader (Anthos 2020, version 2.0.5, Biochrom Ltd., Cambridge, UK).

[2] = NR viability assay, HMCB; format: cell-based, Homo sapiens; conditions: human
Experimental: as §1, §2, §3, §4

[3] = biological target: T1, tyrosinase in HMCB cells (Homo sapiens, UniProt P14679); assay: Cellular tyrosinase assay (L-DOPA as substrate); format: cell-based
T1 construct: endogenous in cells; host or cells: HMCB cells
T1 sequence (P14679 19-529): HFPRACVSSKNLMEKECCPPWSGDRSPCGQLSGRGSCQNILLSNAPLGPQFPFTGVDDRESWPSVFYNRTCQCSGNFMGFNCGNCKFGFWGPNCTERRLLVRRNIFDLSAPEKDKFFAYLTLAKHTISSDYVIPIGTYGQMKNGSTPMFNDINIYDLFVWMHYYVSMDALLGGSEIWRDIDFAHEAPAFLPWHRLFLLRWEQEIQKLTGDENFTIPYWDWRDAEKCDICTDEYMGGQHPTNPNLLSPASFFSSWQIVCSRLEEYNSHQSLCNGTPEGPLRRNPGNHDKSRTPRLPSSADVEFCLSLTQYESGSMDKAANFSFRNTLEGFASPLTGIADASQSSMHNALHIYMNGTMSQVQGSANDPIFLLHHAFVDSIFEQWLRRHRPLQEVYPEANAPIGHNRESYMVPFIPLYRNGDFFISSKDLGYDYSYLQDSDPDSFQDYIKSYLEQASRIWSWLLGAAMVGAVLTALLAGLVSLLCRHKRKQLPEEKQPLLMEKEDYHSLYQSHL
Experimental: (§5) To determine the anti-tyrosinase activity of the samples (at the same concentration as in the viability assay), tyrosinase inhibition assay was used, following the protocol carried out by Apaza Ticona et al.. HMCB cells were cultured in 96-well plates (1 × 10^6 cells/well). […] Absorbance was measured at 475 nm using a microplate reader.

[4] = tested on: NF-κB; assay: NF-κB inhibition assay (LPS-stimulated), HEK001; format: cell-based; conditions: Homo sapiens, read-out: NF-κB Inhibition at 72 h IC50 ± SEM
Experimental: as §5, with “anti-inflammatory” for “anti-tyrosinase”, “NF-κB” for “tyrosinase”, “Cells” for “HMCB cells”, “450” for “475”

[5] = tested on: NF-κB; assay: NF-κB inhibition assay (LPS-stimulated), WS1; format: cell-based; conditions: Homo sapiens, 72 h, read-out: NF-κB Inhibition at 72 h IC50 ± SEM
Experimental: as §5, with “anti-inflammatory” for “anti-tyrosinase”, “NF-κB” for “tyrosinase”, “Cells” for “HMCB cells”, “450” for “475”

[6] = tested on: NF-κB; assay: NF-κB inhibition assay (LPS-stimulated), HMCB; format: cell-based; conditions: Homo sapiens, 72 h, read-out: NF-κB Inhibition at 72 h IC50 ± SEM
Experimental: as §5, with “anti-inflammatory” for “anti-tyrosinase”, “NF-κB” for “tyrosinase”, “Cells” for “HMCB cells”, “450” for “475”

[7] = tested on: Nrf2; assay: Nrf2 activation assay, WS1; format: cell-based; conditions: Homo sapiens, read-out: Activation of Nrf2 production EC50
Experimental: as §5, with “antioxidant response” for “anti-tyrosinase activity”, “Nrf2 activation” for “tyrosinase inhibition”, “Cells” for “HMCB cells”, “540” for “475”

[8] = biological target: T2, elastase from porcine pancreas (Sus scrofa, UniProt P00772); assay: Elastase-inhibitory effect assay; format: biochemical; conditions: for Elastase Inhibition (%): inhibition percentage 'at an IC50', concentration not otherwise stated
T2 construct: elastase from porcine pancreas (7.5 units/mL); from tissue; host or cells: porcine pancreas
T2 sequence (P00772 27-266): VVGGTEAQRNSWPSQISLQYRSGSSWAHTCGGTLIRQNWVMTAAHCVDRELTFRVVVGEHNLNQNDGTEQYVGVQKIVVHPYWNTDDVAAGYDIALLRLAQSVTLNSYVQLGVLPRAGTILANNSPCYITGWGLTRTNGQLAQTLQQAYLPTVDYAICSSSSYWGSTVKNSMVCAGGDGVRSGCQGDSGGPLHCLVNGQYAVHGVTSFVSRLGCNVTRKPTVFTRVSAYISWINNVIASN
Experimental: The elastase-inhibitory effect was evaluated, implementing the protocol adapted from Tu and Tawata.
A mixture containing N-succinyl-Ala-Ala-Ala-p-nitroanilide (AAAPVN, Merck, Cat. No. 52299-14-6, St. Louis, MO, USA) elastase substrate in 0.1232 M Tris-HCl buffer solution (pH 8) was prepared to achieve a concentration of 1.015 mM. This elastase substrate was combined with 10 μL of the test samples at the same concentrations used as in the viability assay in 96-well plates and pre-incubated at room temperature (25 ± 5 °C) for 10 min. Subsequently, the reaction was initiated by adding 10 μL of elastase from porcine pancreas (7.5 units/mL) in Tris buffer solution to the pre-incubated mixtures. Absorbance was then measured at 410 nm using a microplate reader.

[9] = HMCB cells, L-DOPA as substrate, 12 h, read-out: Tyrosinase inhibitory activity IC50

| SMILES | CC50 at 72 h ([1]; HEK001, NR assay, 72 h, read-out: Viability CC50) [µM] | CC50 at 72 h ([2]; HMCB, NR assay, 72 h, read-out: Viability CC50) [µM] | IC50 [3] [µM] | IC50 ([4]; HEK001, 72 h) [µM] | IC50 [5] [µM] | IC50 [6] [µM] | EC50 ([7]; 72 h) [µM] | IC50 [8] [µM] | Elastase Inhibition (%) [8] [%] | CC50 at 72 h [1] [µM] | CC50 at 72 h [2] [µM] | IC50 [3, 9] [µM] | IC50 ([4]; HEK001, LPS-stimulated, 72 h) [µM] | IC50 ([5]; WS1, LPS-stimulated) [µM] | IC50 ([6]; LPS-stimulated) [µM] | EC50 ([7]; WS1, 72 h) [µM] | IC50 ([8]; read-out: Anti-Elastase IC50) [µM] | CC50 at 72 h ([1]; HEK001 cells (cutaneous keratinocytes), HEK001, NR assay, 72 h, read-out: Viability CC50) [µM] | CC50 at 72 h ([2]; HMCB cells (cutaneous melanoma), HMCB, NR assay, 72 h, read-out: Viability CC50) [µM] |
| --- | --- | --- | --- | --- | --- | --- | --- | --- | --- | --- | --- | --- | --- | --- | --- | --- | --- | --- | --- |
| N#C/C(=C\c1ccc(O)cc1)C(=O)O [Compound 3, (E)-2-cyano-3-(4-hydroxyphenyl)acrylic acid] | 130 | 98.4 | 51.5 | 55.97 ± 0.32 | 53.21 ± 0.23 | 51.42 ± 0.13 | 0.983 | 192 ± 3.78 | 6.19 ± 1.44 | – | – | – | – | – | – | – | – | – | – |
| O=C(O)c1cc(O)c2ccccc2n1 [Compound 2, 4-hydroxyquinoline-2-carboxylic acid] | – | – | – | – | – | – | – | – | 17.68 ± 1.46 | 95 | 87.7 | 33.8 | 35.42 ± 0.12 | 32.7 ± 0.51 | 30.7 ± 0.98 | 0.361 | 168 ± 3.09 | – | – |
| CNC(=O)c1ccccc1NC(=O)/C=C/c1ccc(OC)c(OC)c1 [Compound 1, (E)-2-(3-(3,4-dimethoxyphenyl)acrylamido)-N-methylbenzamide] | – | – | – | – | – | – | – | – | 60.76 ± 1.44 | – | – | 14.2 | 11.2 ± 0.23 | 11 ± 0.67 | 9.82 ± 0.65 | 0.268 | 80.1 ± 1.92 | 76.2 | 69.8 |
